Measurements published in patent US9309254B2, “Pyrimidinyl-diazospiro compounds” (CONVERGENCE PHARMACEUTICALS LIMITED, priority 2012, dated 2016).
Counter-ions that a name gives are not always drawn. Like-named read-outs stand apart in the source and are kept apart here.

Target: T1, hNaV1.7 (Homo sapiens, UniProt Q15858)
T1 construct: expressed in transfected cells; host or cells: HEK293
Assay: QPatch NaV1.7 assay
Format: cell-based
Settings: HEK293-hNaV1.7 cells, QPatch16x
Protocol: The compounds of the invention were tested in a QPatch NaV1.7 assay.
HEK293-hNaV1.7 cells were grown in DMEM-F12+10% FBS culture media at 37° C. At a confluency of 50-70% cells were dissociated from culture flasks & triturated to ensure unicellular cell suspension; cell density was measured & adjusted to 2-3×10^6 cells/ml. Recordings were obtained using QPatch16x. The external solution was (in mM): NaCl, 128; KCl, 5; MgCl2, 2; CaCl2, 2; Glucose, 30; HEPES, 15; pH 7.3, 305-315 mOsm. Following seal formation and whole-cell access using internal solution (containing in mM: CsF, 135; EGTA/CsOH, 1/5; HEPES 10; NaCl, 10; pH 7.3, 310-320mOsM), voltage pulse protocols were applied. Initially a steady state inactivation voltage protocol was used to determine the half-maximal voltage for steady state inactivation (V1/2 SSI). Two holding voltages were used to determine test drug inhibition: −90 mV, where most of the channels are in a closed state; and V1/2 SSI, where half of the channels are inactivated. Currents were elicited every 10 seconds by stepping to a membrane potential of 0 mV for 20 ms. Four-point cumulative concentration responses were derived by determining the peak current amplitude at each concentration of test drug over 120 second application. Curves were fitted with the Hill equation yielding pIC50 values at −90 mV and V1/2 SSI holding potentials.

[1] = holding voltage V1/2 SSI, where half of the channels are inactivated, read-out: QP Nav1.7 SSI vhalf pIC50 (converted)
[2] = holding voltage −90 mV, where most of the channels are in a closed state, read-out: QP Nav1.7 - 90 mV pIC50 (converted)

T1 sequence (Q15858 whole entry): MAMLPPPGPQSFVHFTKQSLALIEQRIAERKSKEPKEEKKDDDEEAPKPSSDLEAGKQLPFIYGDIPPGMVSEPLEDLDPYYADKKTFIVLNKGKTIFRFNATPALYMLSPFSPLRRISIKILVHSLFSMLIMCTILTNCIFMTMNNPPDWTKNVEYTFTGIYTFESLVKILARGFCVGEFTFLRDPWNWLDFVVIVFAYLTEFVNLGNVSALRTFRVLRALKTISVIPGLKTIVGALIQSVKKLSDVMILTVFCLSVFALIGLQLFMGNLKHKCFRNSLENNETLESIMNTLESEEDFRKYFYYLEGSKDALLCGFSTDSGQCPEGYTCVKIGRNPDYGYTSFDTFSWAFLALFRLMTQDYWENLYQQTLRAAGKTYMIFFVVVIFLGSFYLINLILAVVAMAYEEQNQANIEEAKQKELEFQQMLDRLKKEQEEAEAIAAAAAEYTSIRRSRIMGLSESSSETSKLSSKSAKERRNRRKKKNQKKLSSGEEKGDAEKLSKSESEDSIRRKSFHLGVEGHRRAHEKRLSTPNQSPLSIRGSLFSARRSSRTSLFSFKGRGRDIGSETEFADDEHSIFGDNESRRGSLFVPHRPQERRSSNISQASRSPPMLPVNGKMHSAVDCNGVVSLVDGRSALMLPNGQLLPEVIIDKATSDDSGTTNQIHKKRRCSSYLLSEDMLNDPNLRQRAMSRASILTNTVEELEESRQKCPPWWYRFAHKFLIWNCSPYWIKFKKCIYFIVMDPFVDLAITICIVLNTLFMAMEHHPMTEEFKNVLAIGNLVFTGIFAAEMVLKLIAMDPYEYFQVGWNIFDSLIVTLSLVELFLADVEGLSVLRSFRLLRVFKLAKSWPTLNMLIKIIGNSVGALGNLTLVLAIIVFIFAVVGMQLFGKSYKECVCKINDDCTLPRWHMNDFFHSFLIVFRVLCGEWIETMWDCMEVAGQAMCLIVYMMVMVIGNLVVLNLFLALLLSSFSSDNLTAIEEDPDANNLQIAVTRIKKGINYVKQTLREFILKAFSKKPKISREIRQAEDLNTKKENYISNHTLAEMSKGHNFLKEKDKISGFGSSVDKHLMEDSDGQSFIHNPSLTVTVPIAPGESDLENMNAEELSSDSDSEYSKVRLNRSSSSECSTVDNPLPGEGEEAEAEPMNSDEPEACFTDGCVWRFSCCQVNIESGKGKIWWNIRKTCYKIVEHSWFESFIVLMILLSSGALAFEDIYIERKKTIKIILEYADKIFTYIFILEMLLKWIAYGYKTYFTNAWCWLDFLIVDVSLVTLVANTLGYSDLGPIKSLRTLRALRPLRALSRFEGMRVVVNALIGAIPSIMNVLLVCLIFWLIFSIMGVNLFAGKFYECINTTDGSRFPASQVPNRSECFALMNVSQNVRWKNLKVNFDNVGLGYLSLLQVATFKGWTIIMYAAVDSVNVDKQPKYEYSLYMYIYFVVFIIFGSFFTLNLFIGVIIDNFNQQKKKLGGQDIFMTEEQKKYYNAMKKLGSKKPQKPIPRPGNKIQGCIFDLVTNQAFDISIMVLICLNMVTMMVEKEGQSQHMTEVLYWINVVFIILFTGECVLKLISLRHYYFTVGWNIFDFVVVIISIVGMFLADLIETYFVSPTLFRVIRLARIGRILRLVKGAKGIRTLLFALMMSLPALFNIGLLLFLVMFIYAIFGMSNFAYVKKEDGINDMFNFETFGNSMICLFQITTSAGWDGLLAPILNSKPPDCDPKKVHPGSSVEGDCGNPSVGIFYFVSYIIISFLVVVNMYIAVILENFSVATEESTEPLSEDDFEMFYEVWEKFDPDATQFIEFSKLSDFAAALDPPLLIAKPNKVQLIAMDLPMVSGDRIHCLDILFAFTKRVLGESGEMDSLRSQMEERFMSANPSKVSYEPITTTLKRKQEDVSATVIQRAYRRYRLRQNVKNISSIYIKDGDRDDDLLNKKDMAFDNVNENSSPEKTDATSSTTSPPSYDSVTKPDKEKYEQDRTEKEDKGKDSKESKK

IC50 [1] [µM]	IC50 [2] [µM]	Structure (SMILES)	QP Nav1.7 SSI vhalf pIC50 (holding voltage V1/2 SSI, where half of the channels are inactivated)
25.1	200	CN1CC[C@]2(CC[C@@H](c3nccc(-c4cccc(OC(F)(F)F)c4)n3)N2)C1=O [Example 20, (2S,5R)-7-Methyl-2-[4-[3-(trifluoromethoxy)phenyl]pyrimidin-2-yl]-1,7-diazaspiro[4.4]nonan-6-one hydrochloride]	–
10	126	CN1CC[C@@]2(CC[C@H](c3nccc(-c4ccc(C(F)(F)F)cc4)n3)N2)C1=O [Example 1, (2R,5S)-7-Methyl-2-[4-[4-(trifluoromethyl)phenyl]pyrimidin-2-yl]-1,7-diazaspiro[4.4]nonan-6-one hydrochloride]	–
12.6	126	CN1CC[C@@]2(CC[C@H](c3nccc(-c4cccc(OC(F)(F)F)c4)n3)N2)C1=O [Example 18, (2R,5S)-7-Methyl-2-[4-[3-(trifluoromethoxy)phenyl]pyrimidin-2-yl]-1,7-diazaspiro[4.4]nonan-6-one hydrochloride]	–
31.6	158	CN1CC[C@]2(CC[C@@H](c3nccc(-c4ccc(C(F)(F)F)cc4)n3)N2)C1=O [Example 3, (2S,5R)-7-Methyl-2-[4-[4-(trifluoromethyl)phenyl]pyrimidin-2-yl]-1,7-diazaspiro[4.4]nonan-6-one hydrochloride]	–
15.8	200	CN1CC[C@]2(CC[C@H](c3nccc(-c4cccc(OC(F)(F)F)c4)n3)N2)C1=O [Example 21, (2R,5R)-7-Methyl-2-[4-[3-(trifluoromethoxy)phenyl]pyrimidin-2-yl]-1,7-diazaspiro[4.4]nonan-6-one hydrochloride]	–
1.58	15.8	CCOc1ccc(F)c(-c2cc(C)nc([C@H]3CC[C@@]4(CCCNC4=O)N3)n2)c1 [Example 37, hydrochloride]	–
3.16	50.1	CCOc1ccc(F)c(-c2cc(C)nc([C@@H]3CC[C@@]4(CCCNC4=O)N3)n2)c1 [Example 38, hydrochloride]	–
12.6	126	CCOc1ccc(F)c(-c2ccnc([C@@H]3CC[C@@]4(CCN(C)C4=O)N3)n2)c1 [Example 16, (2S,5S)-2-[4-(5-Ethoxy-2-fluoro-phenyl)pyrimidin-2-yl]-7-methyl-1,7-diazaspiro[4.4]nonan-6-one hydrochloride]	–
1.26	20	CCOc1ccc(F)c(-c2ccnc([C@H]3CC[C@]4(CCN(C)C4=O)N3)n2)c1 [Example 14, (2R,5R)-2-[4-(5-Ethoxy-2-fluoro-phenyl)pyrimidin-2-yl]-7-methyl-1,7-diazaspiro[4.4]nonan-6-one hydrochloride]	–
2.51	39.8	CCOc1ccc(F)c(-c2cc(C)nc([C@@H]3CC[C@]4(CCN(C)C4=O)N3)n2)c1 [Example 8, (2S,5R)-2-[4-(5-Ethoxy-2-fluoro-phenyl)-6-methyl-pyrimidin-2-yl]-7-methyl-1,7-diazaspiro[4.4]nonan-6-one hydrochloride]	–
5.01	31.6	Cc1cc(-c2ccc(C(F)(F)F)cc2)nc([C@H]2CC[C@@]3(CC(C)(C)NC3=O)N2)n1 [Example 43, (2R,5S)-8,8-Dimethyl-2-[4-methyl-6-[4-(trifluoromethyl)phenyl]pyrimidin-2-yl]-1,7-diazaspiro[4.4]nonan-6-one hydrochloride]	–
50.1	501	Cc1cc(-c2ccc(C(F)(F)F)cc2)nc([C@H]2CC[C@]3(CCNC3=O)N2)n1 [Example 42, (2R,5R)-2-[4-Methyl-6-[4-(trifluoromethyl)phenyl]pyrimidin-2-yl]-1,7-diazaspiro[4.4]nonan-6-one hydrochloride]	–
1.58	20	CCOc1ccc(F)c(-c2cc(C)nc([C@H]3CC[C@@]4(CCN(C)C4=O)N3)n2)c1 [Example 10, (2R,5S)-2-[4-(5-Ethoxy-2-fluoro-phenyl)-6-methyl-pyrimidin-2-yl]-7-methyl-1,7-diazaspiro[4.4]nonan-6-one hydrochloride]	–
15.8	126	Cc1cc(-c2ccc(C(F)(F)F)cc2)nc([C@H]2CC[C@@]3(CCNC3=O)N2)n1 [Example 39, (2R,5S)-2-[4-Methyl-6-[4-(trifluoromethyl)phenyl]pyrimidin-2-yl]-1,7-diazaspiro[4.4]-nonan-6-one hydrochloride]	–
3.98	79.4	CCOc1ccc(F)c(-c2cc(C)nc([C@@H]3CC[C@@]4(CCN(C)C4=O)N3)n2)c1 [Example 11, (2S,5S)-2-[4-(5-Ethoxy-2-fluoro-phenyl)-6-methyl-pyrimidin-2-yl]-7-methyl-1,7-diazaspiro[4.4]nonan-6-one hydrochloride]	–

Structure (SMILES)	IC50 [1] [µM]	IC50 [2] [µM]	QP Nav1.7 SSI vhalf pIC50 (holding voltage V1/2 SSI, where half of the channels are inactivated)
Cc1cc(-c2ccc(C(F)(F)F)cc2)nc([C@H]2CC[C@@]3(CCN(C)C3=O)N2)n1.Cl [Example 7, (2R,5S)-7-Methyl-2-[4-methyl-6-[4-(trifluoromethyl)-phenyl]pyrimidin-2-yl]-1,7-diazaspiro[4.4]nonan-6-one hydrochloride]	–	126	5.7
